Among the data in ChEMBL document CHEMBL3627608, “Crystal structures of human RIP2 kinase catalytic domain complexed with ATP-competitive inhibitors: Foundations for understanding inhibitor selectivity” (Bioorg Med Chem, 2015) are inhibition values, retold here.

One may read the inhibition as the change of the read-out against control, counted positive when it falls.

In assay [1] the target is STE20/SPS1-related proline-alanine-rich protein kinase (Homo sapiens) (UniProt Q9UEW8). Put plainly: Inhibition of STK39 (unknown origin) at 10 uM after 120 mins P33 radiolabeled kinase activity assay.
In assay [2] the target is T1, Serine/threonine-protein kinase BRSK2 (Homo sapiens) (UniProt Q8IWQ3).
T1 sequence (whole entry): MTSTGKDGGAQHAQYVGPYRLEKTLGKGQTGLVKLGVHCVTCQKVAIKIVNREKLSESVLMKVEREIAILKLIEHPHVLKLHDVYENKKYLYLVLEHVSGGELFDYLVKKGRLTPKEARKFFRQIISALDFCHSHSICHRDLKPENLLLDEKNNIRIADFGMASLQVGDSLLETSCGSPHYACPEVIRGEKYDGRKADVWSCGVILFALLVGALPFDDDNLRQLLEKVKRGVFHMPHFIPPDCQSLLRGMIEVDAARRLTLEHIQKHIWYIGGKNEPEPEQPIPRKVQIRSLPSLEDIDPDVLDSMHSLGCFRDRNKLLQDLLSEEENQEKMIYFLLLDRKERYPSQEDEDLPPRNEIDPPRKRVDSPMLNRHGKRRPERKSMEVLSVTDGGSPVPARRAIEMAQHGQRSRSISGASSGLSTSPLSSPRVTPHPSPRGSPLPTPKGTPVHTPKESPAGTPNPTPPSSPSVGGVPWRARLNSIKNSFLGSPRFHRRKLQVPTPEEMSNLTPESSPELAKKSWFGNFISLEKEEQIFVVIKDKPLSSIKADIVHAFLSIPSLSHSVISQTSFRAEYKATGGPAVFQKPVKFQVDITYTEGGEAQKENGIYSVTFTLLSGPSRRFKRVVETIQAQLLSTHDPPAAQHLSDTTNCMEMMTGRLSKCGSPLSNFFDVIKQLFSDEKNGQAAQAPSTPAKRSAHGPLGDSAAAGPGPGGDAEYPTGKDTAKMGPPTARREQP
The assay can be described thus: Inhibition of BRSK2 (unknown origin) at 10 uM after 120 mins P33 radiolabeled kinase activity assay.

Assay [3] has as its target G protein-coupled receptor kinase 6 (Homo sapiens) (UniProt P43250). Put plainly: Inhibition of GRK6 (unknown origin) at 10 uM after 120 mins P33 radiolabeled kinase activity assay.
Assay [4] has as its target Insulin-like growth factor 1 receptor (Homo sapiens) (UniProt P08069). Put plainly: Inhibition of IGF1R (unknown origin) at 10 uM after 120 mins P33 radiolabeled kinase activity assay.
The target in assay [5] is T2, Dual specificity mitogen-activated protein kinase kinase 7 (Homo sapiens) (UniProt O14733).
T2 sequence (whole entry): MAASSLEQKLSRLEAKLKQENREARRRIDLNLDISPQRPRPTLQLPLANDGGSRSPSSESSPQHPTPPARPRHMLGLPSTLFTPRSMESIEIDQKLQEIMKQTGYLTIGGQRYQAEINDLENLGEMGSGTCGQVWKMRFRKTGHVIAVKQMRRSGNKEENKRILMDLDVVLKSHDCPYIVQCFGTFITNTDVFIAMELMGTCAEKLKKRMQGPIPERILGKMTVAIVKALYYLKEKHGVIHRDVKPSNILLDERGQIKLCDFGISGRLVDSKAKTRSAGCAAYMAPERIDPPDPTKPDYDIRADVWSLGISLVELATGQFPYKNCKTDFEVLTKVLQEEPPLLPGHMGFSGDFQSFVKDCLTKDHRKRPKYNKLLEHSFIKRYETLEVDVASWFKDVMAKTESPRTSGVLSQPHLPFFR
The assay can be described thus: Inhibition of MKK7 (unknown origin) at 10 uM after 120 mins P33 radiolabeled kinase activity assay.

In assay [6] the target is Tyrosine-protein kinase SYK (Homo sapiens) (UniProt P43405). Put plainly: Inhibition of SYK (unknown origin) at 10 uM after 120 mins P33 radiolabeled kinase activity assay.
The target of assay [7] is Tyrosine-protein kinase Fer (Homo sapiens) (UniProt P16591). Put plainly: Inhibition of FER (unknown origin) at 10 uM after 120 mins P33 radiolabeled kinase activity assay.
Assay [8] has as its target T3, Serine/threonine-protein kinase 4 (Homo sapiens) (UniProt Q13043).
T3 sequence (whole entry): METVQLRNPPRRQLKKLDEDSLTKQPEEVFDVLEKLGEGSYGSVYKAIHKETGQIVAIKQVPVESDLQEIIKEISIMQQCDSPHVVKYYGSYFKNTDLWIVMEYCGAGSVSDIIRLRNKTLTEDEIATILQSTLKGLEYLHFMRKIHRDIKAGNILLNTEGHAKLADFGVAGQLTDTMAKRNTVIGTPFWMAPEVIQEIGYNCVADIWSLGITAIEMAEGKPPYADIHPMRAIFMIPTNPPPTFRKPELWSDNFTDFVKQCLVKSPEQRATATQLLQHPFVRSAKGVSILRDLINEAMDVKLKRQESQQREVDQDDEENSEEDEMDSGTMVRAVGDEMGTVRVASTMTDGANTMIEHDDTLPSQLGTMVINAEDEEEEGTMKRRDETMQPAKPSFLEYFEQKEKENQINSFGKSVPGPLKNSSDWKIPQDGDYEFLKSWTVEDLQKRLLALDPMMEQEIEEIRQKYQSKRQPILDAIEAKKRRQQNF
Put plainly: Inhibition of MST1 (unknown origin) at 10 uM after 120 mins P33 radiolabeled kinase activity assay.

For assay [9], the target named is Ephrin type-A receptor 4 (Homo sapiens) (UniProt P54764). The assay can be described thus: Inhibition of EPHA4 (unknown origin) at 10 uM after 120 mins P33 radiolabeled kinase activity assay.
Assay [10] concerns the target Proto-oncogene tyrosine-protein kinase receptor Ret (Homo sapiens) (UniProt P07949). The assay can be described thus: Inhibition of RET (unknown origin) at 10 uM after 120 mins P33 radiolabeled kinase activity assay.

Sequence of Insulin-like growth factor 1 receptor (Homo sapiens) (P08069 31-736 limits assumed): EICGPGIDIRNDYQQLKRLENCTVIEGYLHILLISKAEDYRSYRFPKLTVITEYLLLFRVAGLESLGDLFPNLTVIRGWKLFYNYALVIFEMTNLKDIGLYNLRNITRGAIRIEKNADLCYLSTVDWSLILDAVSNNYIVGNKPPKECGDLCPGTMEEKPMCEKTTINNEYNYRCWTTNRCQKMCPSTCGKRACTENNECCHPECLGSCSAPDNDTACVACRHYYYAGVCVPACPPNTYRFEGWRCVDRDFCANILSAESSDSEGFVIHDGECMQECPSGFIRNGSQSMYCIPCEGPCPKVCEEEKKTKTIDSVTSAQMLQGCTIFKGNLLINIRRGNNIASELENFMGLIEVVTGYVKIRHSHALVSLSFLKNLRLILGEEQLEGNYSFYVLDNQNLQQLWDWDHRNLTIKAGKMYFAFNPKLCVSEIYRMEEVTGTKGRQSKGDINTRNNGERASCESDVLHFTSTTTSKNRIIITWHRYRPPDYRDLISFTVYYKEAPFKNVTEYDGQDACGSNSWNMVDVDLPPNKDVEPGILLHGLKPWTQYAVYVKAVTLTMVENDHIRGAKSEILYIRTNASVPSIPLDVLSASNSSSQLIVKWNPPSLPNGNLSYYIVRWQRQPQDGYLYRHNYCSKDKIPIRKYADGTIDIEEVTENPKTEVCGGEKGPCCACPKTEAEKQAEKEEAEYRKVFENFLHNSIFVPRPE
Sequence of Insulin-like growth factor 1 receptor (Homo sapiens) (P08069 741-1367 limits assumed): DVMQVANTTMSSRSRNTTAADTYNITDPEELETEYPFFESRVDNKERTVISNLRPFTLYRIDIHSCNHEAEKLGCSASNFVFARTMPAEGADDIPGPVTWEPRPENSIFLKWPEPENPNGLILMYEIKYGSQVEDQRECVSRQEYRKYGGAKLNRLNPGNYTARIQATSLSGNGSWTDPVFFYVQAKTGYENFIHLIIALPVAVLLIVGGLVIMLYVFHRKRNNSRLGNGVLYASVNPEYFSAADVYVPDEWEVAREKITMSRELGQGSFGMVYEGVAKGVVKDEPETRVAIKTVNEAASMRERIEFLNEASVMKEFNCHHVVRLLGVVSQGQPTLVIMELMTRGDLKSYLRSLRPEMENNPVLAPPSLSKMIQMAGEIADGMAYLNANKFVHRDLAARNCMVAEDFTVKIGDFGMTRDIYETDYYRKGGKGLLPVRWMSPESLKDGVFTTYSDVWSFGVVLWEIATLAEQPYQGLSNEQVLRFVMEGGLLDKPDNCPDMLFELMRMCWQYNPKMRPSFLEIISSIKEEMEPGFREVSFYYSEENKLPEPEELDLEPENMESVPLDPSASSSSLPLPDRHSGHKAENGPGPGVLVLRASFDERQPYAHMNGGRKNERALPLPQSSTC
Sequence of Tyrosine-protein kinase Fer (Homo sapiens) (P16591 whole entry, looked up): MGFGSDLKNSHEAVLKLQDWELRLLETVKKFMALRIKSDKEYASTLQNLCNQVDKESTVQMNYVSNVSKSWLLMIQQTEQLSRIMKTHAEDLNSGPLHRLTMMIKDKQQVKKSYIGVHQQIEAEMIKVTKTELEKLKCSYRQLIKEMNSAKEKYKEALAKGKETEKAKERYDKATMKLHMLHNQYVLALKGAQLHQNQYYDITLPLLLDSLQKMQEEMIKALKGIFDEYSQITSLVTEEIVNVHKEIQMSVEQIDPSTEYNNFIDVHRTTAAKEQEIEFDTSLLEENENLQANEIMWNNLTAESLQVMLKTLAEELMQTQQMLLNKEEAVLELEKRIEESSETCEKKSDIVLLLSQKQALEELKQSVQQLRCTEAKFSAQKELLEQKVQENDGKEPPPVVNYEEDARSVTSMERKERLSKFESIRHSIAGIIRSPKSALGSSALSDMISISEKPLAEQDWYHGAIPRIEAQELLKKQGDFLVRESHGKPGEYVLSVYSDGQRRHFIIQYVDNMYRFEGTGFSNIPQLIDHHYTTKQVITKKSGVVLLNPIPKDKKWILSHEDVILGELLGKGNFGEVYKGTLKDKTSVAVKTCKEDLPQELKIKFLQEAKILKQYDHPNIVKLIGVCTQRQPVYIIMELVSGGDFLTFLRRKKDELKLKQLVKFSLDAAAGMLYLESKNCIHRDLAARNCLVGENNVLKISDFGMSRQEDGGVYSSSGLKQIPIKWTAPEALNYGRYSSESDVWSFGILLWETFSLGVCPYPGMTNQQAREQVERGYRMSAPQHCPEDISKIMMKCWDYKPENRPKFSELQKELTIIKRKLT
Sequence of G protein-coupled receptor kinase 6 (Homo sapiens) (P43250 whole entry, looked up): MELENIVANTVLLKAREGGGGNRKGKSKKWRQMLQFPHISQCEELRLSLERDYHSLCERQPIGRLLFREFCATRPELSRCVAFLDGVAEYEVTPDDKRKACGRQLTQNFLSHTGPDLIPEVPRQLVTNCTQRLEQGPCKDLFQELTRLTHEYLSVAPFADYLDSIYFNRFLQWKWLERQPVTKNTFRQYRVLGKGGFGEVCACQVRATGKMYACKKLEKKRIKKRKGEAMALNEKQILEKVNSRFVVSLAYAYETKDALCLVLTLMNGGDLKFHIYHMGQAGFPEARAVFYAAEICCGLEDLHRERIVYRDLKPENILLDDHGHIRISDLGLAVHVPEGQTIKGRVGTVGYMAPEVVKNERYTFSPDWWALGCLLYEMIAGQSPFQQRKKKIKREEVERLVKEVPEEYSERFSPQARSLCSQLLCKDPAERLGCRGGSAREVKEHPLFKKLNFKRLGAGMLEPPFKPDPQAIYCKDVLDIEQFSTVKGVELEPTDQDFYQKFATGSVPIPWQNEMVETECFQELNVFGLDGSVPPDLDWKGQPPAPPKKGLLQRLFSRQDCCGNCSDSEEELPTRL
Sequence of Ephrin type-A receptor 4 (Homo sapiens) (P54764 whole entry): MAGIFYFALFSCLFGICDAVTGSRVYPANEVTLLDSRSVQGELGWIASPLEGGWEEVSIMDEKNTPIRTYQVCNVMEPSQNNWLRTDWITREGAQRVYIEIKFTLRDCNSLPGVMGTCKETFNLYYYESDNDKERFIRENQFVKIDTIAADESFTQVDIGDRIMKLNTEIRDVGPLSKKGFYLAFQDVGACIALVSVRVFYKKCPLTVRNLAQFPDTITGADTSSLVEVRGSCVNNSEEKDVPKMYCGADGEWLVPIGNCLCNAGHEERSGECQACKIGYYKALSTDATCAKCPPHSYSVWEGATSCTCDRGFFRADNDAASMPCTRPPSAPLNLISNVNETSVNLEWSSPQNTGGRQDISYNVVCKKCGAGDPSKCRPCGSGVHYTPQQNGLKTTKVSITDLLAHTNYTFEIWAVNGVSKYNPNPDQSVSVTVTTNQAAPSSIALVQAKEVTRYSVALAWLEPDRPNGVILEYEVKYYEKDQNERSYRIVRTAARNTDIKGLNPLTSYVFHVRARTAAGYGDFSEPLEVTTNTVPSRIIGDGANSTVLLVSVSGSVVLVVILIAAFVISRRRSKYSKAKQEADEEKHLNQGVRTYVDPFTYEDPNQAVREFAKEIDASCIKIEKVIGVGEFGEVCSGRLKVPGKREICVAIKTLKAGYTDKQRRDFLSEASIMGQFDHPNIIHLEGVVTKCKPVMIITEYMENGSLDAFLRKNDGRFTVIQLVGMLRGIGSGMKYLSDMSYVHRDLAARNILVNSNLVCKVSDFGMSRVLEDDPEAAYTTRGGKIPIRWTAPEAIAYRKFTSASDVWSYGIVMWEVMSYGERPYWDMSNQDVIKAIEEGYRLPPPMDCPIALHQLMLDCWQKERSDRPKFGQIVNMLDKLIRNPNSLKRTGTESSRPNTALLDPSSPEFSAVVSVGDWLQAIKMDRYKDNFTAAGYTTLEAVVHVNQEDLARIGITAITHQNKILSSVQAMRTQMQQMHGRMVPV
Sequence of Proto-oncogene tyrosine-protein kinase receptor Ret (Homo sapiens) (P07949 whole entry): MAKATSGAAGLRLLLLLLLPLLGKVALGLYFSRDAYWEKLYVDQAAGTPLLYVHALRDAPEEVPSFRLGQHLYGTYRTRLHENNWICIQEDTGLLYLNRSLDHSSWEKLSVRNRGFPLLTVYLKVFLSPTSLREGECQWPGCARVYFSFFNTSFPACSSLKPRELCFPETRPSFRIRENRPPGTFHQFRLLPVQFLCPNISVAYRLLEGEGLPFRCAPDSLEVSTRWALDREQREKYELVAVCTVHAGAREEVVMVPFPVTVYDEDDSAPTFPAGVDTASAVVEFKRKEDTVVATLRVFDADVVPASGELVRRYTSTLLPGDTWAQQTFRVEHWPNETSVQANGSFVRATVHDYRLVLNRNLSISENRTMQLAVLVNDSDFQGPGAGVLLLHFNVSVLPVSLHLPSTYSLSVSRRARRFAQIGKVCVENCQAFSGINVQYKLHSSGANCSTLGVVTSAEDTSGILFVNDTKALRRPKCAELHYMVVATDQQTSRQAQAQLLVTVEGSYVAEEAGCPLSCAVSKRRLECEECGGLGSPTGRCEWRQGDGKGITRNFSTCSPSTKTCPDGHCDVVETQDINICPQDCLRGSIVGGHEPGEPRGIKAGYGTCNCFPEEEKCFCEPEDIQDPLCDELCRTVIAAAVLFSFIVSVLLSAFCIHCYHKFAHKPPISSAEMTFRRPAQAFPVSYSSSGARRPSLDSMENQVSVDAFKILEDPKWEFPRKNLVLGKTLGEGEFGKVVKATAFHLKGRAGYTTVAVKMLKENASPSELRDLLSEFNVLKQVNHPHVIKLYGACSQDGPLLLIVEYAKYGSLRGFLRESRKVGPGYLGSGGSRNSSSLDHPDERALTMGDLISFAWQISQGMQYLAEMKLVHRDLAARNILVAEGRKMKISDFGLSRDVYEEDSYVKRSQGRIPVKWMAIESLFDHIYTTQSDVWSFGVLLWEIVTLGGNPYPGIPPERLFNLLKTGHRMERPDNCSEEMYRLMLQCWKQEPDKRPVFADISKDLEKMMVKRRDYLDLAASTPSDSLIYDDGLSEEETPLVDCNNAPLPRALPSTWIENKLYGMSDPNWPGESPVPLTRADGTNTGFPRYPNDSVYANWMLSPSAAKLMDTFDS

For the compound `COCCNC(=O)c1ccc2c(c1)nc(-c1cnc(-c3ccc(Cl)cc3)[nH]1)n2CCOC`, the inhibition in assay [1] is 6.77%; in assay [2], 26.4%; in assay [3] it was -7.62%; in assay [4], 2.21%; in [5] it was 2%; in assay [6], 5.53%. Further, the inhibition in assay [7] was 0.68%; in assay [8] it was 9.73%; in assay [9], 14.3%; in assay [10] it was 36%.
For the compound `CC(C)(C)c1cc(NC(=O)Nc2ccc(Oc3ccncc3)cc2)no1`, the inhibition in assay [1] was 52.4%; in assay [2] it was 18.2%; in assay [3] it was -8.96%; in assay [4], 2.82%; in assay [5], 22.7%; in assay [6], 6.66%. Moreover, the inhibition in [7] was determined as 19.9%; in assay [8] it was 11.5%; in assay [9], 97%; in assay [10], 99.2%.
`CS(=O)(=O)c1cccc(Nc2nccc(-c3sc(N4CCOCC4)nc3-c3cccc(NS(=O)(=O)c4c(F)cccc4F)c3)n2)c1`: the inhibition in assay [1] was 28.6%; in assay [2] it was 34%; in assay [3], -5.6%; in assay [4], 9.14%; in assay [5] it was 7.17%; in assay [6] it was 21.4%. Moreover, the inhibition in assay [7] is 65.2%; in assay [8], 16%; in [9], 70.5%; in [10] it was 98%.
